What was measured:
Assay type in all cases: in vivo
silicosis model mice [1] = test: Silicotic nodule scoring (Masson's Trichrome staining, King's five-point scale) in lung of silicosis model mice; settings: 28 days; for silica-induced nodule formation and collagen fiber deposition: oral, Masson's Trichrome staining; for Silicotic Nodule Score (Mean ± SEM): oral gavage, score 0 to 5, model group 1.08 ± 0.27
Method: (§1) After acclimatization, 6-8-week-old male C57BL/6J mice were intratracheally instilled 40 μL of SiO2 suspension (600 mg/kg) on Day 1 (D1) to establish the silicosis model. On the same day (D1), the animals were randomly divided into 3 groups based on body weight and administered either the vehicle (model group) or Compound 007 (100 mg/kg or 150 mg/kg, once daily) via oral gavage for 28 consecutive days. A normal control group was also established, intratracheally instilled 40 μL of saline on D1 and orally administered sterile water.
Lung tissues from all mice were collected, sectioned, and subjected to Masson's Trichrome staining and H&E staining for silicotic nodule scoring and inflammation scoring. Silicotic nodule scoring was performed using the King's five-point scale [Zhujie Cao, et al., Acta Pharmacologica Sinica, 2021], where the severity of silicotic nodules in lung tissue was scored from 0 to 5, with higher scores indicating more severe nodulation. H&E pathological scoring followed Szapiel's inflammation scoring criteria, where the degree of inflammatory cell infiltration in lung tissue was scored from 0 to 3, with higher scores indicating greater inflammation in the lung tissue (0: no inflammation or alveolitis: 1: mild, mononuclear cell infiltration with thickened alveolar septa, localized involvement, pleural lesions involving less than 20% of the lung, and well-preserved alveolar structure; 2: moderate, more extensive alveolitis involving 20%-50% of the lung, primarily pleural lesions; 3: severe, diffuse alveolitis involving over 50% of the lung, occasionally with mononuclear cell infiltration in the alveoli and interstitium and/or some hemorrhagic areas within the alveoli).

silicosis model mice [2] = test: Mortality during 28-day dosing in silicosis model mice; settings: 100 mg/kg or 150 mg/kg once daily, oral gavage, 28 consecutive days
Method: as §1

silicosis model mice [3] = test: Pulmonary function indices in SiO2-induced silicosis model mice; settings: oral, 28 days, 2 h after final administration, vs model group
Method: as §1
Two hours after the final administration, mouse pulmonary function indices were measured.

TGF-β = TGF-β detection in BALF of silicosis model mice; settings: oral, 28 days, vs model group
Method: as §1
After the administration was completed, the animals were euthanized, and bronchoalveolar lavage fluid (BALF) was collected from randomly selected animals in each group for TGF-β detection.

silicosis model mice [4] = test: Inflammation scoring (H&E staining, Szapiel's criteria) in lung tissue of silicosis model mice; settings: oral gavage, 28 days, score 0 to 3, model group 2.22 ± 0.28
Method: as §1
Lung tissues from all mice were collected, sectioned, and subjected to Masson's Trichrome staining and H&E staining for silicotic nodule scoring and inflammation scoring. Silicotic nodule scoring was performed using the King's five-point scale [Zhujie Cao, et al., Acta Pharmacologica Sinica, 2021], where the severity of silicotic nodules in lung tissue was scored from 0 to 5, with higher scores indicating more severe nodulation. […]

Cn1c(C(=O)N2CC(F)(F)C2)cc2ccc(-c3nccc(Nc4ccc(-c5cn[nH]c5)cc4)n3)cc21 [Compound 007]
silica-induced nodule formation and collagen fiber deposition (silicosis model mice [1]; 100 mg/kg daily): reduced
Silicotic Nodule Score (Mean ± SEM) (silicosis model mice [1]; 100 mg/kg once daily): 0.32 ± 0.06
silica-induced nodule formation and collagen fiber deposition (silicosis model mice [1]; 150 mg/kg daily): reduced
Silicotic Nodule Score (Mean ± SEM) (silicosis model mice [1]; 150 mg/kg once daily): 0.35 ± 0.09
mortality during the dosing period (silicosis model mice [2]): No mortality was observed
inspiratory capacity (silicosis model mice [3]; 100 mg/kg daily, p<0.05): significantly increased
respiratory system elastance (silicosis model mice [3]; 100 mg/kg daily, p<0.05): decreased
respiratory system resistance (silicosis model mice [3]; 100 mg/kg daily, p<0.05): reduced
inspiratory capacity (silicosis model mice [3]; 150 mg/kg daily, p<0.01): significantly increased
respiratory system elastance (silicosis model mice [3]; 150 mg/kg daily, p<0.05): decreased
respiratory system resistance (silicosis model mice [3]; 150 mg/kg daily, p<0.05): reduced
TGF-β levels in BALF (TGF-β; 100 mg/kg daily, p<0.001): significantly reduced
TGF-β levels in BALF (TGF-β; 150 mg/kg daily, p<0.0001): significantly reduced
Inflammation Score (Mean ± SEM) (silicosis model mice [4]; 100 mg/kg once daily): 1.22 ± 0.15
Inflammation Score (Mean ± SEM) (silicosis model mice [4]; 150 mg/kg once daily): 1.22 ± 0.22
